# Legend:
# Type in all cases: cell-based
# [1] = tested on: MCF-7 cells; test: Anti-proliferative toxicity of C63 in tumor cell lines (CCK8): MCF-7; settings: Homo sapiens, MCF7, 72 h, 3 days, read-out: Inhibition rate
# Protocol: (§1) Example 83: Detection of Anti-Proliferative Toxicity of C63 in Some Tumor Cell Lines
# (§2) MCF-7 cells (purchased from the Cell Bank of the Chinese Academy of Sciences, Cat. No. SCSP-531) were subcultured in a culture medium (MEM medium+1% penicillin-streptomycin dual-antibiotic solution+10% fetal bovine serum+0.01 mg/mL recombinant human insulin) in an incubator at 5% carbon dioxide and 37° C.
# MCF-7 cells were seeded at 5000 cells/well (90 μL) on a 96-well plate and cultured for 24 h.
# (§3) 10 mM compound stock solutions were prepared in DMSO.
# (§4) The compound stock solution was diluted with DMSO to give DMSO solutions 1-9 at concentrations of 0 μM, 2500 μM, 500 μM, 100 μM, 20 μM, 4 μM, 0.8 μM, 0.16 μM, and 0.032 μM.
# (§5) 2 μL of each of solutions 1-9 was added to 98 μL of the medium to give mixed solutions 11-19 of the compound and the medium.
# (§6) 10 μL of each of solutions 11-19 was added to the above cell seed solution to give a total volume of 100 μL (90 μL+10 μL).
# (§7) The concentrations of the compound in the wells were 0 μM, 5.0 μM, 1.0 μM, 0.2 μM, 0.04 μM, 0.008 μM, 0.0016 μM, 0.00032 μM, and 0.000064 μM. All concentrations were in triplicate.
# (§8) After the above-treated cells were cultured for 3 days, 10 μL of the CCK8 solution (DOJINDO, Cat. No. PF725) was added to each well. The plate was incubated in an incubator at 37° C. for 1-4 h and then detected on a microplate reader for the reading at 450 nm.
# [2] = tested on: Hep G2 cells; test: Anti-proliferative toxicity of C63 in tumor cell lines (CCK8): Hep G2; settings: Homo sapiens, HepG2, 72 h, 3 days, read-out: Inhibition rate
# Protocol: as §1
# HepG2 cells (purchased from the Cell Bank of the Chinese Academy of Sciences, Cat. No. TCHu72) were subcultured in a culture medium (MEM medium+1% penicillin-streptomycin dual-antibiotic solution+10% fetal bovine serum) in an incubator at 5% carbon dioxide and 37° C.
# Hep G2 cells were seeded at 2000 cells/well (90 μL) on a 96-well plate and cultured for 24 h.
# as §3, §4, §5, §6, §7, §8
# [3] = tested on: BT-549 cells; test: Anti-proliferative toxicity of C63 in tumor cell lines (CCK8): BT-549; settings: Homo sapiens, 72 h, 3 days, read-out: Inhibition rate
# Protocol: as §1
# as §2, with “BT-549” for “MCF-7”, “TCHu93)” for “SCSP-531)”, “(RPMI-1640” for “(MEM”, “solution++10%” for “solution+10%”
# BT-549 cells were seeded at 5000 cells/well (90 μL) on a 96-well plate and cultured for 24 h.
# as §3, §4, §5, §6, §7, §8
smiles,measurement,setting,value
"C[C@]12C=CC(=O)N[C@@H]1CC[C@@H]1[C@@H]2CC[C@]2(C)[C@@H](C(=O)Nc3cccc(N[C@@H]4CCC[C@@H](Nc5cccc6c5C(=O)N([C@H]5CCC(=O)NC5=O)C6=O)C4)c3)CC[C@@H]12 [C63, N-(3-(N—(N-(4-(2-(3S-(2,6-dioxopiperidine))-isoindole-1,3-dione))-1R,3R-cyclohexanediamine))phenyl)-3-oxo-4-aza-5α-androst-1-ene-17β-carboxamide]",inhibition at 64 pM,[1]; 0.000064 μM,6.61%
same,inhibition at 0.00032 µM,[1]; 0.000320 μM,14.5%
same,inhibition at 0.0016 µM,[1]; 0.001600 μM,36.8%
same,inhibition at 0.008 µM,[1]; 0.008000 μM,46%
same,inhibition at 0.04 µM,[1]; 0.040000 μM,50.2%
same,inhibition at 0.2 µM,[1]; 0.200000 μM,54.9%
same,inhibition at 1 µM,[1]; 1.000000 μM,57.6%
same,inhibition at 5 µM,[1]; 5.000000 μM,61.4%
same,inhibition at 64 pM,[2]; 0.000064 μM,1.97%
same,inhibition at 0.00032 µM,[2]; 0.000320 μM,14.1%
same,inhibition at 0.0016 µM,[2]; 0.001600 μM,66.9%
same,inhibition at 0.008 µM,[2]; 0.008000 μM,79.3%
same,inhibition at 0.04 µM,[2]; 0.040000 μM,87.1%
same,inhibition at 0.2 µM,[2]; 0.200000 μM,87.3%
same,inhibition at 1 µM,[2]; 1.000000 μM,85.7%
same,inhibition at 5 µM,[2]; 5.000000 μM,81.1%
same,inhibition at 64 pM,[3]; 0.000064 μM,29.3%
same,inhibition at 0.00032 µM,[3]; 0.000320 μM,28%
same,inhibition at 0.0016 µM,[3]; 0.001600 μM,77.5%
same,inhibition at 0.008 µM,[3]; 0.008000 μM,84.3%
same,inhibition at 0.04 µM,[3]; 0.040000 μM,84.6%
same,inhibition at 0.2 µM,[3]; 0.200000 μM,85.6%
same,inhibition at 1 µM,[3]; 1.000000 μM,84.3%
same,inhibition at 5 µM,[3]; 5.000000 μM,87.5%

# Source: patent US20250213701A1, “MEDICAMENT FOR TREATING HUMAN TUMOR BASED ON ERF3A-TARGETING PROTEOLYSIS MECHANISM” (SUZHOU DEGEN BIO-MEDICAL CO., LTD., priority 2022, published 2025)
